Data published in ChEMBL document CHEMBL4622980, “Peptide Inhibitors of Bacterial Protein Synthesis with Broad Spectrum and SbmA-Independent Bactericidal Activity against Clinical Pathogens” (J Med Chem, 2020).
≈ marks a conversion by molar mass, not a printed value. Calls of active or inactive are those of the source. No cut-off for these calls is given here. Non-standard residues stand in square brackets, D forms with d. Residues, ends and D or L forms follow the SMILES beside them. ξ: configuration not given here. ξP = O=C(O)C1CCCN1

Key:
[1] = test system: Escherichia coli; assay: Antibacterial activity against Escherichia coli BW25113 assessed as prevention visible bacterial growth incubated for 18 hrs; assay type: functional; settings: BW25113, 18 h
[2] = test system: Escherichia coli; assay: Antibacterial activity against Escherichia coli ATCC 25922 assessed as prevention visible bacterial growth incubated for 18 hrs in presence of 10% (v/v) human serum in full MH medium; assay type: functional; settings: ATCC 25922, 18 h
[3] = test system: Pseudomonas aeruginosa; assay: Antibacterial activity against Pseudomonas aeruginosa ATCC 27853 assessed as prevention visible bacterial growth incubated for 18 hrs; assay type: functional; settings: ATCC 27853, 18 h
[4] = test system: Klebsiella pneumoniae; assay: Antibacterial activity against Klebsiella pneumoniae 700603 assessed as prevention visible bacterial growth incubated for 18 hrs; assay type: functional; settings: Klebsiella pneumoniae, 700603, 18 h
[5] = test system: Escherichia coli; assay: Bactericidal activity against Escherichia coli BW25113 expressing delta sbmA mutation assessed as prevention visible bacterial growth incubated for 18 hrs; assay type: functional; settings: BW25113, 18 h
[6] = test system: Escherichia coli; assay: Bactericidal activity against Escherichia coli ATCC 25922 assessed as prevention visible bacterial growth incubated for 18 hrs; assay type: functional; settings: ATCC 25922, 18 h
[7] = test system: Pseudomonas aeruginosa; assay: Bactericidal activity against Pseudomonas aeruginosa ATCC 27853 assessed as prevention visible bacterial growth incubated for 18 hrs; assay type: functional; settings: ATCC 27853, 18 h
[8] = test system: Staphylococcus aureus; assay: Antibacterial activity against Staphylococcus aureus ATCC 25923 assessed as prevention visible bacterial growth incubated for 18 hrs; assay type: functional; settings: ATCC 25923, 18 h
[9] = test system: Escherichia coli; assay: Antibacterial activity against Escherichia coli BW25113 expressing delta sbmA mutation assessed as prevention visible bacterial growth incubated for 18 hrs; assay type: functional; settings: BW25113, 18 h
[10] = test system: Escherichia coli; assay: Antibacterial activity against Escherichia coli ATCC 25922 assessed as prevention visible bacterial growth incubated for 18 hrs; assay type: functional; settings: ATCC 25922, 18 h
[11] = test system: Escherichia coli; assay: Bactericidal activity against Escherichia coli BW25113 assessed as prevention visible bacterial growth incubated for 18 hrs; assay type: functional; settings: BW25113, 18 h
[12] = test system: Klebsiella pneumoniae; assay: Bactericidal activity against Klebsiella pneumoniae 700603 assessed as prevention visible bacterial growth incubated for 18 hrs; assay type: functional; settings: Klebsiella pneumoniae, 700603, 18 h
[13] = Cytotoxicity in human MEC1 cells assessed as reduction in cell viability incubated for 20 hrs by MTT assay; assay type: cell-based
[14] = test system: Escherichia coli; assay: Antibacterial activity against Escherichia coli clinical isolates assessed as prevention visible bacterial growth incubated for 18 hrs; assay type: functional
[15] = test system: Acinetobacter baumannii; assay: Antibacterial activity against Acinetobacter baumannii ATCC 19606 assessed as prevention visible bacterial growth incubated for 18 hrs; assay type: functional; settings: ATCC 19606 = CIP 70.34 = JCM 6841, 18 h
[16] = test system: Escherichia coli; assay: Induction of membrane permeabilization in Escherichia coli BW25113 at 1 to 2 uM incubated for 30 mins by ONPG/beta-galactosidase assay; assay type: functional, organism-based
[17] = test system: Acinetobacter baumannii; assay: Bactericidal activity against Acinetobacter baumannii ATCC 19606 assessed as prevention visible bacterial growth incubated for 18 hrs; assay type: functional; settings: ATCC 19606 = CIP 70.34 = JCM 6841, 18 h
[18] = test system: Staphylococcus aureus; assay: Bactericidal activity against Staphylococcus aureus ATCC 25923 assessed as prevention visible bacterial growth incubated for 18 hrs; assay type: functional; settings: ATCC 25923, 18 h
[19] = test system: Escherichia coli; assay: Inhibition of in-vitro transcription/translation in Escherichia coli lysates at 1 uM incubated for 1 hr by luciferase reporter gene assay relative to control; assay type: functional

Compound | MIC99 [1] | also measured
H-RRIRPRPPWLPRPRPR-OH | 4 µM | –
H-RRIRFRPPRLPRPRPR-OH | 8 µM | –
H-RRIRARPPRLPRPRPR-OH | 8 µM | –
H-RAIRPRPPRLPRPRPR-OH | 16 µM | –
H-RRIRPRPPRWPRPRPR-OH | 16 µM | –
H-RRIRPRPPRGPRPRPR-OH | 64 µM | –
H-SRIRPRPPRLPRPRPR-OH | 16 µM | –
H-RRIRPRPPRLPPPRPR-OH | 32 µM | –
H-RRIRPRPPRLPFPRPR-OH | 16 µM | –
H-RRIRPRSPRLPRPRPR-OH | 16 µM | –
H-RRIRPRPARLPRPRPR-OH | 16 µM | –
H-RRIRPRPPRLPRPFPR-OH | 8 µM | –
H-RRIRPRPRRLPRPRPR-OH | 16 µM | –
H-RRARPRPPRLPRPRPR-OH | 16 µM | –
H-RRIRPRPPRLPRPAPR-OH | 32 µM | –
H-RRIRRRPPRLPRPRPR-OH | 8 µM | –

Compound | MIC99 [1] | also measured
H-RRIRPRPPRLPRWRPR-OH | 2 µM | –
H-RRIEPRPPRLPRPRPR-OH | > 64 µM | –
H-RRIRPRPPRLWRPRPR-OH | 8 µM | –
H-PRIRPRPPRLPRPRPR-OH | 8 µM | –
H-RRIRPFPPRLPRPRPR-OH | 16 µM | –
H-RRIRPRPPRLFRPRPR-OH | 32 µM | –
H-RRIRPRPPRLPRPRPE-OH | 64 µM | –
H-RRIRPRPSRLPRPRPR-OH | 16 µM | –
H-RRIRPRGPRLPRPRPR-OH | 16 µM | –
H-RRIRPRPPRLPRGRPR-OH | 16 µM | –
H-RRIRPPPPRLPRPRPR-OH | 32 µM | –
H-RRIRPRPPRSPRPRPR-OH | 32 µM | –
H-RRIRPRPPRLPRPRPR-OH | 2 to 8 µM | MIC [2]: 1 µM; MIC99 [3]: > 64 µM; MIC99 [4]: 4 µM; MBC [5]: 64 µM; MBC [6]: 2 µM; MBC [7]: > 64 µM; MIC99 [8]: > 64 µM; MIC99 [9]: 16 µM; MIC99 [10]: 1 µM; MBC [11]: 4 µM; MBC [12]: 64 µM; CC50 at 20 h [13]: > 64 µM; MIC99 [14]: > 1 µM; MIC99 [15]: 32 µM; Activity [16]: inactive; MBC [17]: > 64 µM; MBC [18]: > 64 µM
H-WRIRPRPPRLPRWRPR-OH | 2 µM | MIC [2]: 2 µM; MIC99 [3]: > 64 µM; MIC99 [4]: 8 µM; MBC [5]: 32 µM; MBC [6]: 2 µM; MBC [7]: > 64 µM; MIC99 [8]: > 64 µM; MIC99 [9]: 16 µM; MIC99 [10]: 1.5 µM; MBC [11]: 4 µM; MBC [12]: 32 µM; CC50 at 20 h [13]: > 64 µM; MIC99 [14]: > 1 µM; MIC99 [15]: 32 µM; Activity [16]: inactive; MBC [17]: 64 µM; inhibition [19]: Active; MBC [18]: > 64 µM
H-RRIRSRPPRLPRPRPR-OH | 16 µM | –
H-RGIRPRPPRLPRPRPR-OH | 16 µM | –

The next lines start with results.

MIC99 [1] | Compound | also measured
32 µM | H-RRIRPRPPRLSRPRPR-OH | –
64 µM | H-IRPLPPRRPRRPRRRP-OH | –
4 µM | H-RRIRPRWPRLPRPRPR-OH | –
32 µM | H-RRIRPRPPRLPGPRPR-OH | –
16 µM | H-RRIRPRAPRLPRPRPR-OH | –
32 µM | H-RRIRPRPPRLPRPRER-OH | –
8 µM | H-RRIWPRPPRLPRPRPR-OH | –
16 µM (≈ 33 µg/mL) | CC(C)C[C@H](NC(=O)[C@H](CCCNC(=N)N)NC(=O)[C@@H]1CCCN1C(=O)[C@@H]1CCCN1C(=O)[C@H](CCCNC(=N)N)NC(=O)[C@@H]1CCCN1C(=O)[C@H](CCCNC(=N)N)NC(=O)C1CCCN1C(=O)[C@H](CCCNC(=N)N)NC(=O)[C@@H](N)CCCNC(=N)N)C(=O)N1CCC[C@H]1C(=O)N[C@@H](CCCNC(=N)N)C(=O)N1CCC[C@H]1C(=O)N[C@@H](CCCNC(=N)N)C(=O)N1CCC[C@H]1C(=O)N[C@@H](CCCNC(=N)N)C(=O)O (stereo partly drawn) (H-RR[ξP]RPRPPRLPRPRPR-OH) | –
16 µM | H-RRIPPRPPRLPRPRPR-OH | –
8 µM | H-RRIRPRPPRLPRPRAR-OH | –
8 µM | H-RRIRPRPPRLPRRRPR-OH | –
16 µM | H-RFIRPRPPRLPRPRPR-OH | –
16 µM | H-RRIGPRPPRLPRPRPR-OH | –
16 µM | H-RRIRPAPPRLPRPRPR-OH | –
> 64 µM | H-RRIRPEPPRLPRPRPR-OH | –
16 µM | H-RRIAPRPPRLPRPRPR-OH | –
32 µM | H-RRIRPRPPSLPRPRPR-OH | –
32 µM | H-RRIRPRPPRLARPRPR-OH | –
8 µM | H-RRRRPRPPRLPRPRPR-OH | –
8 µM | H-RRIRPRPPRLPRPRPF-OH | –
64 µM | H-RRIRPRPERLPRPRPR-OH | –
64 µM (≈ 129 µg/mL) | CC[C@H](C)[C@H](NC(=O)C1CCCN1C(=O)[C@@H](N)CCCNC(=N)N)C(=O)N[C@@H](CCCNC(=N)N)C(=O)N1CCC[C@H]1C(=O)N[C@@H](CCCNC(=N)N)C(=O)N1CCC[C@H]1C(=O)N1CCC[C@H]1C(=O)N[C@@H](CCCNC(=N)N)C(=O)N[C@@H](CC(C)C)C(=O)N1CCC[C@H]1C(=O)N[C@@H](CCCNC(=N)N)C(=O)N1CCC[C@H]1C(=O)N[C@@H](CCCNC(=N)N)C(=O)N1CCC[C@H]1C(=O)N[C@@H](CCCNC(=N)N)C(=O)O (stereo partly drawn) (H-R[ξP]IRPRPPRLPRPRPR-OH) | –
32 µM | H-RRIRPRPPRLPAPRPR-OH | –
8 µM | H-RWIRPRPPRLPRPRPR-OH | –
4 µM | H-RRWRPRPPRLPRPRPR-OH | –
16 µM | H-RRIRPRPPRLPRPRPS-OH | –
